Reference: US20210382058A1, “PATIENT SELECTION FOR TREATMENT OF MYC POSITIVE CANCERS WITH INDENOISOQUINOLINES” (Purdue Research Foundation, priority 2020, published 2021)
Where two headings read alike, the source gives them in different places.

What was measured:
[1] = test system: MYC protein expression in MCF-7 breast cancer cells; experiment: Western blotting of MYC protein level in MCF-7 cells; type: cell-based, human; settings: Homo sapiens, MCF7; western blotting, MCF-7 cells, 0.5, 1, 2, and 4 μM, 24 hours; read-out: MYC Inhibition
How it was run: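 MCF-7 cells were exposed to compounds at 0.5, 1, 2 and 4 μM for 24 hours at 37° C. MYC was detected by immunoblot with ECL, using rabbit anti-MYC (1:1000) and anti-GAPDH (1:2000) as loading control.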

NCI-60 cancer cell lines = experiment: NCI-60 cancer cell line drug screen (GI50, MGM); type: cell-based, human; settings: Homo sapiens; for GI50: read-out: Antiproliferative Activities [GI50 (μM)]
Procedure: Cancer cells were incubated with the test compounds at five concentrations ranging from 100 μM to 10 nM for 48 h. […] The approximate average of GI50 values across the entire panel of NCI-60 cancer cell lines for each compound was recorded as the MGM value.

human topoisomerase I = molecular target: T1, human topoisomerase I (Homo sapiens, UniProt P11387); settings: relative topoisomerase I inhibition levels, previously determined, six levels (0 - 5, +++++ = 5); cited from earlier work
T1 sequence (P11387 1-765): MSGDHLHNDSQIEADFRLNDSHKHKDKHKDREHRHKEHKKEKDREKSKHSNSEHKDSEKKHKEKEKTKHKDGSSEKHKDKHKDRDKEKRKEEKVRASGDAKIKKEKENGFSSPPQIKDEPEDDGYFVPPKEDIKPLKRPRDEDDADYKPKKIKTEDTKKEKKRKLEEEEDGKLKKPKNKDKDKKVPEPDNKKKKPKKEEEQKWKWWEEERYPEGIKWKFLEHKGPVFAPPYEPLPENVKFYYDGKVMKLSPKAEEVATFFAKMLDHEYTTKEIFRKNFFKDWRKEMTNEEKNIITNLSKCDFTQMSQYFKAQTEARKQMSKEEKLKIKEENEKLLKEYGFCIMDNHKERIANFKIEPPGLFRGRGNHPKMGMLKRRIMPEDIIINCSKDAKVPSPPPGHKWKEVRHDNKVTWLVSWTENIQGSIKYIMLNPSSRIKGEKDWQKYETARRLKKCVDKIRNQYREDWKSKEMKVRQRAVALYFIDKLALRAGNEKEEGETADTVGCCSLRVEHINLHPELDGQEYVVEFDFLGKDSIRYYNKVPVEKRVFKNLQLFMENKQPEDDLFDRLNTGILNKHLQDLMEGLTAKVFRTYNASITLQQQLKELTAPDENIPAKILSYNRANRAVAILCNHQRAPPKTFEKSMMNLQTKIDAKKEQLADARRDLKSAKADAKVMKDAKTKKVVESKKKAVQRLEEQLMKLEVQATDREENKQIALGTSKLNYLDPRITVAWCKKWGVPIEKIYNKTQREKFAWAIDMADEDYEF

Which results are given for `COc1cc2c(cc1O)-c1c(c3ccc([N+](=O)[O-])cc3c(=O)n1CCCn1ccnc1)C2=O` [Compound 37]?
minimal effective concentration [1]: 0.5 to 1 µM; GI50 (NCI-60 cancer cell lines; 786-0, Renal Cancer, 786-0): 0.33 µM; GI50 (NCI-60 cancer cell lines; ACHN, Renal Cancer, ACHN): 0.31 µM; GI50 (NCI-60 cancer cell lines; BT-549, Breast Cancer, BT-549): 0.35 µM; GI50 (NCI-60 cancer cell lines; CAKI-1, Renal Cancer, CAKI-1): 0.22 µM; GI50 (NCI-60 cancer cell lines; CCRF-CEM, Leukemia, CCRF-CEM): 0.66 µM; GI50 (NCI-60 cancer cell lines; COLO 205, Colon Cancer, COLO 205): 7.9 µM; GI50 (NCI-60 cancer cell lines; DU-145, Prostate Cancer, DU-145): 0.33 µM; GI50 (NCI-60 cancer cell lines; HCC 2998, Colon Cancer, HCC-2998): 37.1 µM; GI50 (NCI-60 cancer cell lines; HCT-15, Colon Cancer, HCT-15): > 100 µM; GI50 (NCI-60 cancer cell lines; HCT-116, Colon Cancer, HCT-116): 0.74 µM; GI50 (NCI-60 cancer cell lines; HL-60, Leukemia, HL-60(TB)): 0.59 µM; GI50 (NCI-60 cancer cell lines; HOP-62, Non-Small Cell Lung Cancer, HOP-62): 0.59 µM; GI50 (NCI-60 cancer cell lines; HOP-92, Non-Small Cell Lung Cancer, HOP-92): 13.6 µM; GI50 (NCI-60 cancer cell lines; HT-29, Colon Cancer, HT29): 4.08 µM; GI50 (NCI-60 cancer cell lines; Hs-578T, Breast Cancer, HS 578T): > 100 µM; GI50 (NCI-60 cancer cell lines; IGROV-1, Ovarian Cancer, IGROV1): 11.3 µM; GI50 (NCI-60 cancer cell lines; K562, Leukemia, K-562): 2.25 µM; GI50 (NCI-60 cancer cell lines; KM12, Colon Cancer, KM12): 9.39 µM; GI50 (NCI-60 cancer cell lines; LOX IMVI, Melanoma, LOX IMVI): 0.3 µM; GI50 (NCI-60 cancer cell lines; Leukemia, SR): 0.03 µM; GI50 (NCI-60 cancer cell lines; MCF7, Breast Cancer, MCF7): 0.08 µM; GI50 (NCI-60 cancer cell lines; MDA-MB-231, Breast Cancer, MDA-MB-231/ATCC): 18.1 µM; GI50 (NCI-60 cancer cell lines; MDA-MB-435, Melanoma, MDA-MB-435): 2.84 µM; GI50 (NCI-60 cancer cell lines; MOLT-4, Leukemia, MOLT-4): 0.24 µM; GI50 (NCI-60 cancer cell lines; Malme-3M, Melanoma, MALME-3M): 1.79 µM; GI50 (NCI-60 cancer cell lines; NCI-H23, Non-Small Cell Lung Cancer, NCI-H23): 0.68 µM; GI50 (NCI-60 cancer cell lines; NCI-H322M, Non-Small Cell Lung Cancer, NCI-H322M): 72.6 µM; GI50 (NCI-60 cancer cell lines; NCI-H460, Non-Small Cell Lung Cancer, NCI-H460): 0.24 µM; GI50 (NCI-60 cancer cell lines; NCI-H522, Non-Small Cell Lung Cancer, NCI-H522): 0.1 µM; GI50 (NCI-60 cancer cell lines; OVCAR-3, Ovarian Cancer, OVCAR-3): 1.35 µM; GI50 (NCI-60 cancer cell lines; OVCAR-4, Ovarian Cancer, OVCAR-4): 1.41 µM; GI50 (NCI-60 cancer cell lines; OVCAR-5, Ovarian Cancer, OVCAR-5): > 100 µM; GI50 (NCI-60 cancer cell lines; OVCAR-8, Ovarian Cancer, OVCAR-8): 0.89 µM; GI50 (NCI-60 cancer cell lines; Ovarian Cancer, NCl/ADR-RES): > 100 µM; GI50 (NCI-60 cancer cell lines; Prostate Cancer, PC-3): 7.22 µM; GI50 (NCI-60 cancer cell lines; RPMI-8226, Leukemia, RPMI-8226): 0.7 µM; GI50 (NCI-60 cancer cell lines; RXF 393, Renal Cancer, RXF 393): 1.35 µM; GI50 (NCI-60 cancer cell lines; SF-268, CNS Cancer, SF-268): 0.27 µM; GI50 (NCI-60 cancer cell lines; SF-295, CNS Cancer, SF-295): 0.33 µM; GI50 (NCI-60 cancer cell lines; SF-539, CNS Cancer, SF-539): 0.37 µM; GI50 (NCI-60 cancer cell lines; SK-MEL-2, Melanoma, SK-MEL-2): 30.8 µM; GI50 (NCI-60 cancer cell lines; SK-MEL-5, Melanoma, SK-MEL-5): 1.67 µM; GI50 (NCI-60 cancer cell lines; SK-MEL-28, Melanoma, SK-MEL-28): 16.4 µM; GI50 (NCI-60 cancer cell lines; SK-OV-3, Ovarian Cancer, SK-OV-3): 0.56 µM; GI50 (NCI-60 cancer cell lines; SN12C, Renal Cancer, SN12C): 0.42 µM; GI50 (NCI-60 cancer cell lines; SNB-19, CNS Cancer, SNB-19): 12.8 µM; GI50 (NCI-60 cancer cell lines; SNB-75, CNS Cancer, SNB-75): 2.97 µM; GI50 (NCI-60 cancer cell lines; SW-620, Colon Cancer, SW-620): 0.81 µM; GI50 (NCI-60 cancer cell lines; T47D, Breast Cancer, T-47D): 12 µM; GI50 (NCI-60 cancer cell lines; TK-10, Renal Cancer, TK-10): 2.54 µM; GI50 (NCI-60 cancer cell lines; U-251, CNS Cancer, U251): 0.27 µM; GI50 (NCI-60 cancer cell lines; UACC-62, Melanoma, UACC-62): 0.21 µM; GI50 (NCI-60 cancer cell lines; UACC-257, Melanoma, UACC-257): 25.3 µM; mean GI50 across NCI-60 panel (MGM) (NCI-60 cancer cell lines; average of GI50 values across the entire panel of NCI-60 cancer cell lines): 1.86 µM; Top1 Inhibiton (human topoisomerase I): ++ (medium inhibition, ++, MYC expression inhibited at 2.0 μM, or no clear dose-dependent MYC inhibition)
